{"source": "patent US4132737A", "about": "“Trifluoromethyl substituted 1-aminoindanes” (Eli Lilly and Company, priority 1978, dated 1979)", "key": {"[1]": {"assay": "pKa determination"}, "[2]": {"target": "T1, norephineprine N-methyl transferase (Oryctolagus cuniculus, UniProt G1TT82)", "T1 construct": "employing NMT from rabbit adrenals; from tissue; host or cells: rabbit adrenals", "T1 sequence (G1TT82 1-286)": "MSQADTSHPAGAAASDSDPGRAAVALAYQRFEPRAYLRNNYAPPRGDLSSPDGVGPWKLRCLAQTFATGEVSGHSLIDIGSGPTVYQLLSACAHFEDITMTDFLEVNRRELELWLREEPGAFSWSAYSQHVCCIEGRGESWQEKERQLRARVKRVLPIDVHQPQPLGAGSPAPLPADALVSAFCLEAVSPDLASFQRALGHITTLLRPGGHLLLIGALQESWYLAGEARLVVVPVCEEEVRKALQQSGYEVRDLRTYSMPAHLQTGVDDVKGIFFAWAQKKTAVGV", "assay": "in vitro inhibition of N-methyl transferase (NMT) from rabbit adrenals", "assay_type": "biochemical", "details": "from concentration giving 50 percent inhibition, decreasing concentrations from 1 × 10^-4 M, read-out: pI50 (converted)", "source_text": "The compounds of this invention, either in the form of the free base, or as a pharmaceutically-acceptable acid addition salt thereof, are enzyme inhibitors. In particular, as previously stated, they are inhibitors of norephineprine N-methyl transferase [PNMT or phenethanolamine N-methyl transferase - - see Axelrod, J. Bio. Chem., 237, 1657 (1962)]. Compounds which inhibit the conversion of norephineprine to ephineprine are capable of lowering a high ephineprine-norephineprine ratio in mammals, a physiological condition frequently associated with essential hypertension. The compounds of this invention are thus capable of ameliorating the ephineprine-norephineprine imbalance in essential hypertension, an important aspect of the treatment of this disease state. The effectiveness of the compounds as N-methyl transferase inhibitors has been measured in vitro employing NMT from rabbit adrenals. By using a series of decreasing concentration of the inhibiting amine, usually starting with 1 × 10^-4 M continuing with 3 × 10^-5 M, 1 × 10^-5 M, etc., it was possible to determine a concentration at which the 50 percent inhibition of NMT was achieved. The negative reciprocal logarhithm (pI50) of this number was also calculated as a useful index. Table 1, which follows, summarizes the information thus obtained; i.e., the determination of enzyme inhibition activity for the compounds of this invention. […]"}, "[3]": {"system": "catechol amine uptake", "details": "literature statement, no figures; cited from earlier work"}}, "note": "Where a name gives a salt, the structure may show the parent alone.", "data": [{"smiles": "NC1CCc2ccc(C(F)(F)F)cc21", "note": "(centres unmarked) [6-Trifluoromethyl-1-aminoindane hydrochloride]", "values": [{"measurement": "pKa", "setting": "[1]", "value": 8.52}, {"measurement": "IC50", "setting": "[2]", "value": 64.6, "unit": "µM"}]}, {"smiles": "NC1Cc2ccccc2C1", "note": "[2-aminoindane]", "values": [{"measurement": "inhibitor of catechol amine uptake, compared with 1-aminoindane", "setting": "[3]", "value": "better inhibitor of catechol amine uptake than 1-aminoindane"}]}, {"smiles": "NC1CCc2c1cccc2C(F)(F)F", "note": "(centres unmarked) [4-trifluoromethyl-1-aminoindane hydrochloride]", "values": [{"measurement": "pKa", "setting": "[1]", "value": 8.58}, {"measurement": "IC50", "setting": "[2]", "value": 0.234, "unit": "µM"}]}]}
